Our source for the MIC values is ChEMBL document CHEMBL1148300, “Synthesis and evaluation of oxazaborolidines for antibacterial activity against Streptococcus mutans” (2004).

Values after ≈ are worked out from the molar mass of the structure shown.

The test system of this assay is Streptococcus mutans. Description: Minimal Inhibitory Concentration ofcompound against Streptococcus mutans. The class given is functional.
`CCCC[B-]12OCC[NH+]1CCO2` (stereo not drawn) displayed an MIC of 6.75 mM (≈ 1150 µg/mL).
The value for `CC1NB(c2ccccc2)OC1c1ccccc1` (stereo not drawn) was 1.33 mM (≈ 315 µg/mL); that for `CCCCB1NC(C)(C)CO1` was 3.38 mM (≈ 524 µg/mL).
The same measure for `CCCCB1OC(c2ccccc2)C(C)N1C` (stereo not drawn): 0.53 mM (≈ 123 µg/mL).
`c1ccc([B-]23OCC[NH+]2CCO3)cc1` (stereo not drawn) came in with an MIC of 6.75 mM (≈ 1290 µg/mL).
The value for `CC1(C)COB(c2ccccc2)N1` was 6 mM (≈ 1050 µg/mL); that for `CCCCB1NC(C)C(c2ccccc2)O1` (stereo not drawn) was 2.83 mM (≈ 614 µg/mL).
The value for `CC1C(c2ccccc2)OB(c2ccccc2)N1C` (stereo not drawn) was 1.55 mM (≈ 389 µg/mL).
